Holding throughout (type): cell-based
Test [1] has as its system Recombinant respiratory syncytial virus expressing the firefly luciferase protein (RSV-Fluc). Put plainly: microbe, parasite or virus in culture. Particulars: Table 4.
Test [2] has as its system Respiratory syncytial virus (RSV) strain A2. Kind of test: Hep-2 RSV2 384-well assay (EC50-HEP2-384). Conditions: HEp-2 cells, RSV A2, MOI=4, 4 days.
The test system of test [3] is Respiratory syncytial virus recombinant with luciferase (RSV-Luc5). Put plainly: microbe, parasite or virus in culture.
The test system of another test is SARS-CoV-2. Kind of test: SARS-CoV-2 antiviral assay (A549-hACE2, Nano luciferase). Particulars: A549-hACE2 cells, SARS-CoV2-Nano, MOI 0.025, 48 h, Table 4, read-out: EC50 SARS CoV2.
In test [4] the test system is Respiratory syncytial virus (RSV) strain A2. Kind of test: RSV antiviral assay (HEp-2, 96 well). Particulars: Table 3.
Where [5] appears, read: human respiratory syncytial virus, NHBE, 72 h, read-out: EC50 RSVFluc NHBE 96, NHBE cells, RSV-Fluc, MOI of 0.1, three days, 96 well.
Setting [6] is: Severe acute respiratory syndrome coronavirus 2, 48 h.
[7] abbreviates: read-out: EC50 RSVFluc NHBE 96, NHBE cells, RSV-Fluc, MOI of 0.1, three days, 96 well.
Where [8] appears, read: read-out: EC50 RSVFluc-Hep2 384, HEp-2 cells, RSV-Luc5, MOI=0.5, 3 days, 384 well, Table 3.
Where [9] appears, read: human respiratory syncytial virus, HEp-2, 96 h, Table 3.
Where [10] appears, read: read-out: EC50 RSV HEP2 96, HEp-2 cells, RSV A2, MOI=4, 4 days, 96 well.
Where [11] appears, read: human respiratory syncytial virus, HEp-2, 72 h, read-out: EC50 RSVFluc-Hep2 384, HEp-2 cells, RSV-Luc5, MOI=0.5, 3 days, 384 well, Table 3.

Like-named read-outs stand apart in the source and are kept apart here.

As usually defined, the EC50 is the concentration that produces a half-maximal response. As to `CCC(CC)COC(=O)[C@H](C)NP(=O)(OC[C@H]1O[C@@](C#N)(c2ccc3c(N)ncnn23)[C@H](O)[C@@H]1O)Oc1ccc(C(C)(C)C)cc1` (single isomer, unassigned) [Example 13a], the EC50 in test [1] (setting [5]) turned out to be 5.92 nM; in test [2] (Table 1) it was 91.2 nM; in test [3] (human respiratory syncytial virus, HEp-2, 72 h, read-out: EC50 RSVFluc-Hep2 384, HEp-2 cells, RSV-Luc5, MOI=0.5, 3 days, 384 well, One-Glo, Table 1), 52.1 nM; in the test on SARS-CoV-2 (setting [6]) it was 181 nM.
Turning to `CCC(CC)COC(=O)[C@H](C)NP(=O)(OC[C@H]1O[C@@](C#N)(c2ccc3c(N)ncnn23)[C@H](O)[C@@H]1O)Oc1ccc(C(C)(C)C)cc1` (single isomer, unassigned) [Example 13b], the EC50 came to 6.86 nM in test [1] (setting [7]); 33.4 nM in test [2] (Table 1); 26.7 nM in test [3] (read-out: EC50 RSVFluc-Hep2 384, HEp-2 cells, RSV-Luc5, MOI=0.5, 3 days, 384 well, One-Glo, Table 1); 174 nM in the test with SARS-CoV-2.
Take `CC(=O)O[C@H]1[C@@H](OC(C)=O)[C@](C#N)(c2ccc3c(N)ncnn23)O[C@@H]1COP(=O)(N[C@@H](C)C(=O)OC1CC2(CCC2)C1)Oc1ccccc1` (single isomer, unassigned) [Example 45a]: the EC50 is 7.29 nM in test [1] (setting [5]), 60.4 nM in test [2] (Table 3), 22.7 nM in test [3] (setting [8]) and 72.8 nM with SARS-CoV-2 (setting [6]).
On to `CC(=O)O[C@H]1[C@@H](OC(C)=O)[C@](C#N)(c2ccc3c(N)ncnn23)O[C@@H]1COP(=O)(N[C@@H](C)C(=O)OC1CC2(CCC2)C1)Oc1ccccc1` (single isomer, unassigned) [Example 45b], for which the EC50 in test [1] (setting [7]) is 10.3 nM; in test [2] (Table 3) it was 23.9 nM; in test [3] (setting [8]), 6.87 nM; in the test on SARS-CoV-2, 56.9 nM.
Regarding `CCC(CC)COC(=O)[C@H](C)NP(=O)(OC[C@H]1O[C@@](C#N)(c2ccc3c(N)ncnn23)[C@H](OC(C)=O)[C@@H]1OC(C)=O)Oc1cccc2ccccc12` (single isomer, unassigned) [Example 78b], the EC50 is 5.67 nM in test [1] (setting [5]); 75.6 nM in test [2] (setting [9]); 21 nM in test [4] (setting [10]); 33.8 nM in test [3] (setting [11]); 20 nM with SARS-CoV-2.
Regarding `CC(=O)O[C@H]1[C@@H](OC(C)=O)[C@](C#N)(c2ccc3c(N)ncnn23)O[C@@H]1COP(=O)(N[C@@H](C)C(=O)OC1CC2(CCC2)C1)Oc1cccc2ccccc12` (single isomer, unassigned) [Example 83a], the EC50 in test [1] (setting [5]) worked out at 6.98 nM; in test [4] (setting [10]), 21.9 nM; in test [3] (setting [11]), 32.8 nM; in the test on SARS-CoV-2 (setting [6]), 49 nM.
`CC(=O)O[C@H]1[C@@H](OC(C)=O)[C@](C#N)(c2ccc3c(N)ncnn23)O[C@@H]1COP(=O)(N[C@@H](C)C(=O)OC1CC2(CCC2)C1)Oc1cccc2ccccc12` (single isomer, unassigned) [Example 83b]: the EC50 came out at 7.12 nM in test [1] (setting [7]); 27.9 nM in test [2] (setting [9]); 7.32 nM in test [4] (setting [10]); 20.4 nM in test [3] (setting [8]); 32.8 nM in the test with SARS-CoV-2.
With `CC(C)C(=O)O[C@H]1[C@@H](OC(=O)C(C)C)[C@](C#N)(c2ccc3c(N)ncnn23)O[C@@H]1COP(=O)(N[C@@H](C)C(=O)OC1CC2(CCC2)C1)Oc1cccc2ccccc12` (single isomer, unassigned) [Example 86a], the concentration for a half-maximal effect (EC50) stood at 7.93 nM in test [1] (setting [5]); 21.6 nM in test [4] (human respiratory syncytial virus, HEp-2, 96 h, read-out: EC50 RSV HEP2 96, HEp-2 cells, RSV A2, MOI=4, 4 days, 96 well); 88.2 nM in test [3] (setting [8]); 109 nM in the test on SARS-CoV-2.
As for `CC(C)C(=O)O[C@H]1[C@@H](OC(=O)C(C)C)[C@](C#N)(c2ccc3c(N)ncnn23)O[C@@H]1COP(=O)(N[C@@H](C)C(=O)OC1CC2(CCC2)C1)Oc1cccc2ccccc12` (single isomer, unassigned) [Example 86b], the EC50 in test [1] (setting [7]) is 9.46 nM; in test [4] (setting [10]), 20.9 nM; in test [3] (setting [8]) it was 28.3 nM; with SARS-CoV-2, 23.6 nM.
With `CC(=O)O[C@H]1[C@@H](OC(C)=O)[C@](C#N)(c2ccc3c(N)ncnn23)O[C@@H]1COP(=O)(N[C@@H](C)C(=O)OC1CC(C)(C)C1)Oc1ccc(C(C)(C)C)cc1` (single isomer, unassigned) [Example 96a], the EC50 in test [1] (setting [7]) was 8.53 nM; in test [2] (setting [9]), 26.5 nM; in test [3] (setting [11]), 21.2 nM; in the test on SARS-CoV-2 (setting [6]) it was 198 nM.
In the case of `CC(=O)O[C@H]1[C@@H](OC(C)=O)[C@](C#N)(c2ccc3c(N)ncnn23)O[C@@H]1COP(=O)(N[C@@H](C)C(=O)OC1CC(C)(C)C1)Oc1ccc(C(C)(C)C)cc1` (single isomer, unassigned) [Example 96b], the EC50 in test [1] (setting [7]) was determined as 25.1 nM; in test [2] (Table 3) it was 27.9 nM; in test [3] (setting [8]), 22.5 nM; with SARS-CoV-2 it was 276 nM.
Take `CC(=O)O[C@H]1[C@@H](OC(C)=O)[C@](C#N)(c2ccc3c(N)ncnn23)O[C@@H]1COP(=O)(N[C@@H](C)C(=O)OCC1CC1)Oc1ccc(C(C)(C)C)cc1` (single isomer, unassigned) [Example 102a]: the EC50 in test [1] (setting [5]) is 8.46 nM; in test [2] (setting [9]), 32 nM; in test [3] (setting [8]), 8.68 nM; in the test with SARS-CoV-2 (setting [6]) it was 155 nM.
With `C[C@H](NP(=O)(OC[C@H]1O[C@@](C#N)(c2ccc3c(N)ncnn23)[C@H](O)[C@@H]1O)Oc1ccccc1)C(=O)OC1CC2(CCC2)C1` (stereo partly drawn) [Example 44, spiro[3.3]heptan-2-yl ((((2R,3S,4R,5R)-5-(4-aminopyrrolo[2,1-f][1,2,4]triazin-7-yl)-5-cyano-3,4-dihydroxytetrahydrofuran-2-yl)methoxy)(phenoxy)phosphoryl)-L-alaninate], the EC50 worked out at 9.47 nM in test [1] (setting [5]), 56 nM in test [2] (setting [9]), 18.3 nM in test [3] (setting [11]) and 104 nM in the test with SARS-CoV-2 (setting [6]).
For `CC(=O)O[C@H]1[C@@H](OC(C)=O)[C@](C#N)(c2ccc3c(N)ncnn23)O[C@@H]1COP(=O)(N[C@@H](C)C(=O)OC1CC2(CCC2)C1)Oc1ccccc1` (stereo partly drawn) [Example 45, (2R,3R,4R,5R)-2-(4-aminopyrrolo[2,1-f][1,2,4]triazin-7-yl)-2-cyano-5-((((((S)-1-oxo-1-(spiro[3.3]heptan-2-yloxy)propan-2-yl)amino)(phenoxy)phosphoryl)oxy)methyl)tetrahydrofuran-3,4-diyl Diacetate], in that order: 5.29 nM, 31.1 nM, 19 nM and 105 nM.
For the molecule `CC(C)C(=O)O[C@H]1[C@@H](OC(=O)C(C)C)[C@](C#N)(c2ccc3c(N)ncnn23)O[C@@H]1COP(=O)(N[C@@H](C)C(=O)OC1CC2(CCC2)C1)Oc1ccccc1` (stereo partly drawn) [Example 46, (2R,3R,4R,5R)-2-(4-aminopyrrolo[2,1-f][1,2,4]triazin-7-yl)-2-cyano-5-((((((S)-1-oxo-1-(spiro[3.3]heptan-2-yloxy)propan-2-yl)amino)(phenoxy)phosphoryl)oxy)methyl)tetrahydrofuran-3,4-diyl bis(2-methylpropanoate)], the EC50 came to 7.79 nM in test [1] (setting [5]), 52.3 nM in test [2] (setting [9]), 19.3 nM in test [3] (setting [11]) and 237 nM in the test with SARS-CoV-2 (setting [6]).
Take `CC(=O)O[C@H]1[C@@H](OC(C)=O)[C@](C#N)(c2ccc3c(N)ncnn23)O[C@@H]1COP(=O)(N[C@@H](C)C(=O)OC1CC(C)(C)C1)Oc1ccc(C(C)(C)C)cc1` (stereo partly drawn) [Example 96, (2R,3R,4R,5R)-2-(4-aminopyrrolo[2,1-f][1,2,4]triazin-7-yl)-5-((((4-(tert-butyl)phenoxy)(((S)-1-(3,3-dimethylcyclobutoxy)-1-oxopropan-2-yl)amino)phosphoryl)oxy)methyl)-2-cyanotetrahydrofuran-3,4-diyl Diacetate]: the EC50 was determined as 5.48 nM in test [1] (setting [5]), 39.9 nM in test [2] (setting [9]), 30.2 nM in test [3] (setting [11]) and 95.9 nM in the test with SARS-CoV-2 (setting [6]).
Regarding `CC(=O)O[C@H]1[C@@H](OC(C)=O)[C@](C#N)(c2ccc3c(N)ncnn23)O[C@@H]1COP(=O)(N[C@@H](C)C(=O)OCC(C)C)Oc1ccc(C(C)(C)C)cc1` (stereo partly drawn) [Example 137, (2R,3R,4R,5R)-2-(4-aminopyrrolo[2,1-f][1,2,4]triazin-7-yl)-5-((((4-(tert-butyl)phenoxy)(((S)-1-isobutoxy-1-oxopropan-2-yl)amino)phosphoryl)oxy)methyl)-2-cyanotetrahydrofuran-3,4-diyl Diacetate], the EC50 is 4.82 nM in test [1] (setting [5]), 31.5 nM in test [2] (setting [9]), 22.1 nM in test [3] (setting [11]) and 67.4 nM with SARS-CoV-2 (setting [6]).

(Values after patent US12404289B2 (Gilead Sciences, Inc., priority 2020, dated 2025).)
